This note sets out measurements from patent US20050124498A1, “Halobenzyl substituted phenylaceto esters and amides and use thereof for prevention of harmful organisms” (priority 2002, published 2005).

Structures are written as SMILES. Some results are limits rather than exact numbers.

The subject of data set [1] is Phytophthora infestans. The experiment in a line: whole plant or invertebrate. The format is in vivo. Particulars: in Solanum lycopersicum, 72 h, read-out: efficacy.
Data set [2] concerns apple mildew pathogen Podosphaera leucotricha. The experiment in a line: Podosphaera test (apple)/protective. The format is in vivo. The conditions noted are these: 240 h, protective, application rate 100 g/ha, evaluation 10 days after inoculation, read-out: efficacy. Here is the method:
(§1) Podosphaera test (apple)/protective [table] To produce a suitable preparation of active compound, 1 part by weight of active compound is mixed with the stated amounts of solvent and emulsifier, and the concentrate is diluted with water to the desired concentration. To test for protective activity, young plants are sprayed with the preparation of active compound at the stated application rate. After the spray coating has dried on, the plants are inoculated with an aqueous spore suspension of the apple mildew pathogen Podosphaera leucotricha. The plants are then placed in a greenhouse at about 23° C. and about 70% relative atmospheric humidity.

For data set [3], the system named is Sphaerotheca fuliginea. The experiment in a line: Sphaerotheca test (cucumber)/protective. The format is in vivo. Particulars: Podosphaera fuliginea, 168 h, protective, application rate 100 g/ha, evaluation 7 days after inoculation, read-out: efficacy. The protocol:
as §1, with “Sphaerotheca” for “Podosphaera”, “(cucumber)/protective” for “(apple)/protective”, “Sphaerotheca fuliginea.” for “the apple mildew pathogen Podosphaera leucotricha.”

For data set [4], the system named is apple scab pathogen Venturia inaequalis. The experiment in a line: Venturia test (apple)/protective. The format is in vivo. The conditions noted are these: 240 h, protective, application rate 100 g/ha, evaluation 10 days after inoculation, read-out: efficacy. The protocol: Venturia test (apple)/protective […] To produce a suitable preparation of active compound, 1 part by weight of active compound is mixed with the stated amounts of solvent and emulsifier, and the concentrate is diluted with water to the desired concentration. To test for protective activity, young plants are sprayed with the preparation of active compound at the stated application rate. After the spray coating has dried on, the plants are inoculated with an aqueous conidia suspension of the apple scab pathogen Venturia inaequalis and then remain in an incubation cabin at about 20° C. and 100% relative atmospheric humidity for 1 day. The plants are then placed in a greenhouse at about 21° C. and a relative atmospheric humidity of about 90%.

Data set [5] concerns Leptosphaeria nodorum. The data set is described as follows: Leptosphaeria nodorum test (wheat)/protective. The format is in vivo. The conditions noted are these: Parastagonospora nodorum, 240 h, protective, application rate 500 g/ha, evaluation 10 days after inoculation, read-out: efficacy. Here is the method: Leptosphaeria nodorum test (wheat)/protective [table] To produce a suitable preparation of active compound, 1 part by weight of active compound is mixed with the stated amounts of solvent and emulsifier, and the concentrate is diluted with water to the desired concentration. To test for protective activity, young plants are sprayed with the preparation of active compound at the stated application rate. After the spray coating has dried on, the plants are sprayed with a spore suspension of Leptosphaeria nodorum. The plants remain in an incubation cabin at 20° C. and 100% relative atmospheric humidity for 48 hours. The plants are placed in a greenhouse at a temperature of about 15° C. and a relative atmospheric humidity of 80%.

The nature of data set [6]: physchem.
The subject of data set [7] is Erysiphe graminis f.sp. hordei. The experiment in a line: Erysiphe test (barley)/protective. Particulars: Blumeria graminis, 168 h, protective, application rate 500 g/ha, evaluation 7 days after inoculation, read-out: efficacy. The format is in vivo. The protocol:
Erysiphe test (barley)/protective [table] To produce a suitable preparation of active compound, 1 part by weight of active compound is mixed with the stated amounts of solvent and emulsifier, and the concentrate is diluted with water to the desired concentration. To test for protective activity, young plants are sprayed with the preparation of active compound at the stated application rate. After the spray coating has dried on, the plants are dusted with spores of Erysiphe graminis f.sp. hordei. The plants are placed in a greenhouse at a temperature of about 20° C. and a relative atmospheric humidity of about 80% to promote the development of mildew pustules.

For data set [8], the system named is green peach aphid (Myzus persicae). The experiment in a line: Myzus test/broad beans. Particulars: broad bean seedlings dipped, active compound concentration 100 ppm, after 6 days. The format is in vivo. Here is the method:
Myzus test/broad beans [table] To produce a suitable preparation of active compound, 1 part by weight of active compound is mixed with the stated amount of solvent and the stated amount of emulsifier, and the concentrate is diluted with emulsifier-containing water to the desired concentration. Broad bean seedlings (Vicia faba minor) which are infected by the green peach aphid (Myzus persicae) are dipped into a preparation of active compound of the desired concentration and placed into a plastic dish. After the desired period of time, the kill in percent is determined. 100% means that all animals have been killed; 0% means that none of the animals have been killed.

Data set [9] in a line: logP determination by HPLC (EEC Directive 79/831 Annex V.A8). Particulars: pH 2.

As a reminder, the chromatographic logP is a lipophilicity value derived from retention on a column. As to `CNC(=O)/C(=N/OC)c1c(F)cccc1Oc1ncnc(Oc2ccccc2Cl)c1F` [Example 2, 2-{2-[6-(2-chlorophenoxy)-5-fluoropyrimidin-4-yloxy]-6-fluorophenyl}-2-methoxyimino-N-methylacetamide], the pest or weed control at 100 g/ha in [1] is at least 86%; in [2], at least 82%; in data set [3], at least 98%; in [4], at least 97%. The pest or weed control at 500 g/ha in [5] is at least 98%. In [6] (pH 2, log P (pH 2)), this compound showed a chromatographic logP of 3.1.

Turning to `CO/N=C(/C(=O)OC)c1c(F)cccc1COc1ccccc1C` [Example 8, methyl (2-fluoro-6-o-tolyloxymethylphenyl)methoxyiminoacetate], the pest or weed control at 100 g/ha in data set [2] is at least 82%; in data set [3] it was at least 98%; in data set [4], at least 97%. Besides, in data set [7], the pest or weed control at 500 g/ha was at least 98%. The same compound had a chromatographic logP in data set [6] (pH 2, log P (pH 2)) of 3.65.

`CO/N=C(/C(=O)OC)c1c(F)cccc1Oc1ncnc(Oc2cccc(Cl)c2Cl)c1F` [Example 12]: the pest or weed control at 100 g/ha in data set [1] is at least 86%; in data set [2], at least 82%; in data set [3] it was at least 98%; in data set [4], at least 97%. In addition, in data set [7], the pest or weed control at 500 g/ha is at least 98%. Besides, in data set [6] (logP), the chromatographic logP stood at 4.16.

Regarding `CO/N=C(/C(=O)OC)c1c(F)cccc1Oc1ncnc(Oc2ccccc2Cl)c1F` [Example 14], the pest or weed control at 100 g/ha in data set [1] was at least 86%; in [2] it was at least 82%; in data set [3], at least 98%; in data set [4] it was at least 97%. The pest or weed control at 500 g/ha in data set [7] was at least 98%. In data set [6] (logP), this compound registered a chromatographic logP of 3.73.

As for `CNC(=O)/C(=N/OC)c1ccc(F)cc1Oc1ncnc(Oc2ccccc2F)c1F` [Example 16], the pest or weed control at 500 g/ha in data set [5] was at least 98%. The compound also registered a chromatographic logP in data set [6] (logP) of 3.03.

`CNC(=O)/C(=N/OC)c1ccc(F)cc1Oc1ncnc(Oc2ccc(Cl)cc2)c1F` [Example 22]: in data set [5], the pest or weed control at 500 g/ha was at least 98%. The compound further displayed a chromatographic logP in data set [6] (logP) of 3.32.

For the compound `CNC(=O)/C(=N/OC)c1ccc(F)cc1Oc1ncnc(Oc2ccccc2C(F)(F)F)c1F` [Example 31], the pest or weed control at 100 g/ha is at least 86% in [1], at least 82% in data set [2], at least 98% in data set [3] and at least 97% in data set [4]. The pest or weed control at 500 g/ha in data set [5] was at least 98%. In [6] (logP), this compound had a chromatographic logP of 3.26.

As for `CNC(=O)/C(=N/OC)c1ccc(F)cc1Oc1nccc(OCC(F)(F)C(F)(F)F)n1` [Example 40], the pest or weed control at 500 g/ha in data set [7] is at least 98%. The compound also displayed a chromatographic logP in [6] (logP) of 2.87.

Take `CNC(=O)/C(=N\OC)c1c(F)cccc1Oc1ccccc1` [Example 41]: in data set [7], the pest or weed control at 500 g/ha is at least 98%. In data set [6] (logP), this compound had a chromatographic logP of 2.49.

In the case of `CO/N=C(\C(=O)OC)c1c(F)cccc1Oc1ncnc(Oc2cccc(Cl)c2C)c1F` [Example 42], the pest or weed control at 500 g/ha in [7] is at least 98%. Also, the chromatographic logP in data set [6] (logP) was 4.41.

`CO/N=C(\C(=O)OC)c1c(F)cccc1Oc1ccccc1` [Example 43]: the pest or weed control at 500 g/ha in data set [7] was at least 98%. The compound also displayed a chromatographic logP in data set [6] (logP) of 3.42.

For the compound `CNC(=O)/C(=N/OC)c1c(F)cccc1Oc1nccc(OCC(F)(F)C(F)(F)F)n1` [Example 44], the pest or weed control at 500 g/ha in data set [7] was at least 98%. Also, the chromatographic logP in [6] (logP) stood at 2.89.

Take `CNC(=O)/C(=N/OC)c1c(F)cccc1Oc1ncnc(Oc2cccc(Cl)c2C)c1F` [Example 45]: the pest or weed control at 100 g/ha was at least 86% in data set [1], at least 82% in data set [2], at least 98% in [3] and at least 97% in [4]. Moreover, in [5], the pest or weed control at 500 g/ha was at least 98%. The compound also yielded a chromatographic logP in [6] (logP) of 3.6.

In the case of `CNC(=O)/C(=N/OC)c1c(F)cccc1Oc1cc(Oc2cccc(Cl)c2Cl)ncn1` [Example 46], the pest or weed control at 100 g/ha in [1] was at least 86%; in [2], at least 82%; in [3], at least 98%; in data set [4] it was at least 97%. In [5], the pest or weed control at 500 g/ha is at least 98%. In data set [6] (logP), the chromatographic logP was determined as 3.23.

For the compound `CNC(=O)/C(=N/OC)c1c(F)cccc1Oc1cc(Oc2ccccc2Cl)ncn1` [Example 47], the pest or weed control at 100 g/ha in [1] is at least 86%; in data set [2], at least 82%; in data set [3], at least 98%; in data set [4], at least 97%. Further, in data set [5], the pest or weed control at 500 g/ha was at least 98%. The compound also came in with a chromatographic logP in [6] (logP) of 2.79.

Consider `CNC(=O)/C(=N/OC)c1c(F)cccc1Oc1ncnc(Oc2cccc(Cl)c2Cl)c1F` [Example 48], for which the pest or weed control at 100 g/ha in data set [1] was at least 86%; in data set [2] it was at least 82%; in [3], at least 98%; in data set [4], at least 97%. Further, in data set [5], the pest or weed control at 500 g/ha was at least 98%. For the same compound, in data set [6] (logP), the chromatographic logP came out at 3.5.

Consider `CO/N=C(/C(=O)OC)c1c(F)cccc1CO/N=C(\C)c1cccc(C(F)(F)F)c1` [Example 50], for which the pest or weed control at 100 g/ha in data set [1] is at least 86%; in data set [2] it was at least 82%; in [3], at least 98%; in [4], at least 97%. Also, the pest or weed control at 500 g/ha in [7] was at least 98%. The compound further yielded a chromatographic logP in data set [6] (logP) of 4.27.

`CNC(=O)/C(=N/OC)c1c(F)cccc1CO/N=C(\C)c1cccc(C(F)(F)F)c1` [Example 51]: the pest or weed control at 100 g/ha in data set [1] is at least 86%; in [2], at least 82%; in data set [3], at least 98%; in data set [4], at least 97%. Further, the pest or weed control at 500 g/ha in data set [7] was at least 98%. Moreover, in [6] (logP), the chromatographic logP turned out to be 3.71.

Take `CNC(=O)/C(=N\OC)c1c(F)cccc1CO/N=C(\C)c1cccc(C(F)(F)F)c1` [Example 56]: the pest or weed control at 100 g/ha in data set [1] is at least 86%; in data set [2], at least 82%; in data set [3], at least 98%; in data set [4], at least 97%. The compound further showed a kill in data set [8] of 100%. In [6] (logP), this compound gave a chromatographic logP of 3.8.

Regarding `CNC(=O)/C(=N/OC)c1c(F)cccc1Oc1cc(Oc2cccc(Cl)c2C)ncn1` [Example 57], the pest or weed control at 100 g/ha in [1] was at least 86%; in data set [2], at least 82%; in data set [3] it was at least 98%; in [4], at least 97%. Besides, the pest or weed control at 500 g/ha in data set [5] was at least 98%. Moreover, the chromatographic logP in [6] (logP) was found to be 3.24.

`CO/N=C(/C(=O)OC)c1c(F)cccc1CBr` [Example (VIII-1), methyl (2-bromomethyl-6-fluorophenyl)methoxyiminoacetate]: the “log P (pH 2)” value is 2.87. Moreover, the chromatographic logP in [6] (pH 2, log P (pH 2)) turned out to be 2.58.

With `Cc1cccc(F)c1C(=O)C#N` [Example (XX-1), 2-fluoro-6-methylbenzoyl cyanide], the chromatographic logP in data set [9] amounted to 2.55.
